From patent US7501431B2, “Physiologically active substances PF1270A, B and C substances” (Meui Seika Kaisha, Ltd., priority 2003, dated 2009)
Read-outs that look alike come from different tables or passages of the source.

Assays:
[1] = Solubility (physicochemical properties)
[2] = molecular target: T1, histamine H3 receptor (Rattus norvegicus, UniProt Q9QYN8); assay: N^α-methylhistamine binding inhibition test ([3H]N^α-methylhistamine, rat fore-brain membrane fraction)
T1 construct: Rat fore-brain was homogenized in 10 volumes of 0.32 M sucrose solution; from tissue; host or cells: rat fore-brain membrane fraction
Description: The PF1270A, B and C substances obtained by the invention have affinity for histamine H3 receptor. Affinity of the PF1270A, B and C substances for histamine H3 receptor was examined by a binding inhibition test of a histamine H3 receptor ligand, N^α-methylhistamine.
Test Example N^α-methylhistamine Binding Inhibition Activity
Rat fore-brain was homogenized in 10 volumes of 0.32 M sucrose solution using a Teflon-glass homogenizer, and the thus obtained homogenate was centrifuged at 1000×g for 10 minutes. The supernatant was centrifuged at 39000×g for 20 minutes to obtain the precipitate. This precipitate was washed with an assay buffer (50 mM Tris (pH 7.4), 5 mM EDTA) by centrifugation. This operation was further carried out twice, and the finally obtained membrane fraction was used as the histamine H3 receptor membrane fraction.
The binding inhibition test was carried out using the thus obtained membrane fraction and a radioactive ligand [^3H]N^α-methylhistamine (manufactured by Perkin-Elmer Life Science). In the presence of PF1270A, B or C substance, the membrane fraction (55 μg as protein) and 1 nM in final concentration of [^3H]N^α-methylhistamine were added to 150 μl of the assay buffer and incubated at room temperature for 60 minutes. This was filtered using a unifilter GF/B filter (manufactured by Perkin-Elmer) coated with 0.3% polyethyleneimine and washed three times with 200 μl of the assay buffer. After drying at 50° C. for 1 hour, 30 μl of Microscinti-20 (manufactured by Perkin-Elmer) was added thereto as the scintillator, and the radioactivity was counted using Top Count (manufactured by Perkin-Elmer). The nonspecific binding was determined by adding a large excess of thioperamide (10 μM in final concentration). The binding inhibition ratio of N^α-methylhistamine in the presence of PF1270A, B or C substance was calculated based on the following formula. […]

[3] = rat fore-brain histamine H3 receptor membrane fraction, 1 nM [3H]N^α-methylhistamine, room temperature 60 minutes, read-out: N^α-methylhistamine binding inhibition activity, IC50 (converted)

T1 sequence (Q9QYN8 whole entry): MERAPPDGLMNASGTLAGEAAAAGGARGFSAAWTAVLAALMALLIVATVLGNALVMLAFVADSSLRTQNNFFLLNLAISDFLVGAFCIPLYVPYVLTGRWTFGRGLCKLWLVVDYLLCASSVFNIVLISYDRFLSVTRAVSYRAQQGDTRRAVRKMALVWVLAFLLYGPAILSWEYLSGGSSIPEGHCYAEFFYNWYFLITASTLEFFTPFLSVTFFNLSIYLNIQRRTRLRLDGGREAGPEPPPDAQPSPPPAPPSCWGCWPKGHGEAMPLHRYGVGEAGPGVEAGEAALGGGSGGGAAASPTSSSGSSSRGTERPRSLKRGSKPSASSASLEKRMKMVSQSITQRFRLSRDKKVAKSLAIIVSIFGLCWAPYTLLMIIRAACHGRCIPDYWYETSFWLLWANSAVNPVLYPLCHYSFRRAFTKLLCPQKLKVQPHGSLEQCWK

| Compound | Solubility in chloroform and methanol [1] | Solubility in water [1] | IC50 [2, 3] [nM] | IC50 [2] [nM] |
| --- | --- | --- | --- | --- |
| CNC12CN3C(C)CC(OC(C)=O)CC3CC1C(C)(C=O)C1(C2)C(=O)Nc2c(C(=O)C3OC3(C)C)cccc21 (stereo not drawn) [PF1270C] | soluble | hardly soluble | 763 |  |
| CCCC(=O)OC1CC(C)N2CC3(NC)CC4(C(=O)Nc5c(C(=O)C6OC6(C)C)cccc54)C(C)(C=O)C3CC2C1 (stereo not drawn) [PF1270A] | soluble | hardly soluble |  | 83.1 |
| CCC(=O)OC1CC(C)N2CC3(NC)CC4(C(=O)Nc5c(C(=O)C6OC6(C)C)cccc54)C(C)(C=O)C3CC2C1 (stereo not drawn) [PF1270B] | soluble | hardly soluble | 399 |  |
